Data reported in ChEMBL document CHEMBL1201862, “PubChem BioAssay data set” (2004).
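Assay format: 96-well plates, 48-hour exposure. Abbreviation: GI50, concentration required for 50% inhibition of growth.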 Activity calls are given as the source filed them. No stated cut-off is given here; in the data, active = GI50 up to about 1.1 µM and inactive = higher.

Legend:
Test in all cases: NCI anticancer screen, dose series, 48 h
ACHN = test system: ACHN
EKVX = test system: EKVX
HCT-15 = test system: HCT-15
HOP-62 = test system: HOP-62
K562 = test system: K562
LOX IMVI = test system: LOX IMVI
MOLT-4 = test system: MOLT-4
NCI-H23 = test system: NCI-H23
NCI-H522 = test system: NCI-H522
OVCAR-4 = test system: OVCAR-4
OVCAR-5 = test system: OVCAR-5
OVCAR-8 = test system: OVCAR-8
SK-MEL-2 = test system: SK-MEL-2
SK-MEL-5 = test system: SK-MEL-5
SK-OV-3 = test system: SK-OV-3
SN12C = test system: SN12C
T47D = test system: T47D
TK-10 = test system: TK-10
UACC-257 = test system: UACC-257
UACC-62 = test system: UACC-62

SMILES | GI50 (ACHN) | GI50 (EKVX) | GI50 (HCT-15) [µM] | GI50 (HOP-62) | GI50 (K562) | GI50 (LOX IMVI) | GI50 (MOLT-4) | GI50 (NCI-H23) | GI50 (NCI-H522) | GI50 (OVCAR-4) | GI50 (OVCAR-5) | GI50 (OVCAR-8) | GI50 (SK-MEL-2) | GI50 (SK-MEL-5) | GI50 (SK-OV-3) | GI50 (SN12C) | GI50 (T47D) | GI50 (TK-10) | GI50 (UACC-257) | GI50 (UACC-62)
Oc1ccc(-c2cn3cc(C(F)(F)F)ccc3n2)cc1 | 12.1 µM (inactive) | 56.2 µM (inactive) | 35.6 | > 100 µM (inactive) | 35.2 µM (inactive) | 43.2 µM (inactive) | 26.5 µM (inactive) | 38 µM (inactive) | 17.3 µM (inactive) | 55.7 µM (inactive) | 76.9 µM (inactive) | 37.8 µM (inactive) | 62.2 µM (inactive) | 32.1 µM (inactive) | > 100 µM (inactive) | 72.3 µM (inactive) | 18.3 µM (inactive) | 41.5 µM (inactive) | 29.6 µM (inactive) | 31.7 µM (inactive)
O=C(CSc1nc2nncc-2c(O)[nH]1)c1ccc(Cl)cc1 | > 100 µM (inactive) | 66.5 µM (inactive) | 93.8 | > 100 µM (inactive) | > 100 µM (inactive) | > 100 µM (inactive) | > 100 µM (inactive) | > 100 µM (inactive) | > 100 µM (inactive) | > 100 µM (inactive) | > 100 µM (inactive) | > 100 µM (inactive) | 75.3 µM (inactive) | > 100 µM (inactive) | > 100 µM (inactive) | > 100 µM (inactive) | > 100 µM (inactive) | > 100 µM (inactive) | > 100 µM (inactive) | > 100 µM (inactive)
C=C1C(=O)OC2/C=C(\COC(C)=O)CCC(OC(C)=O)C3=CC(OC3=O)C12 (stereo not given) | 3.12 µM (inactive) | 11.7 µM (inactive) | 2.94 | 19.8 µM (inactive) | 2.3 µM (inactive) | 5.45 µM (inactive) | 1.58 µM (inactive) | 8.95 µM (inactive) | 0.526 µM (active) | 23.3 µM (inactive) | 17.7 µM (inactive) | 3.31 µM (inactive) | 6.46 µM (inactive) | 11.6 µM (inactive) | 14.6 µM (inactive) | 8.87 µM (inactive) | 16.9 µM (inactive) | 5.28 µM (inactive) | 3.57 µM (inactive) | 4.26 µM (inactive)
CCOC(=O)C(NC(=O)CC)(Nc1ccc(S(=O)(=O)Nc2ccc(OC)nn2)cc1)C(F)(F)F (stereo not given) | > 100 µM (inactive) | > 100 µM (inactive) | > 100 | > 100 µM (inactive) | > 100 µM (inactive) | > 100 µM (inactive) | > 100 µM (inactive) | > 100 µM (inactive) | > 100 µM (inactive) | > 100 µM (inactive) | > 100 µM (inactive) | > 100 µM (inactive) | > 100 µM (inactive) | > 100 µM (inactive) | > 100 µM (inactive) | > 100 µM (inactive) | > 100 µM (inactive) | > 100 µM (inactive) | > 100 µM (inactive) | > 100 µM (inactive)
CC(C)=CCc1cc(C2COc3cc4c(c(O)c3C2=O)C=CC(C)(C)O4)c(O)cc1O (stereo not given) | 16.7 µM (inactive) | 12.7 µM (inactive) | 13.7 | 17.8 µM (inactive) | 3.08 µM (inactive) | 17.7 µM (inactive) | 5.61 µM (inactive) | 15.6 µM (inactive) | 11.6 µM (inactive) | 10.6 µM (inactive) | 15.6 µM (inactive) | 21.5 µM (inactive) | 17.7 µM (inactive) | 11.3 µM (inactive) | 15.7 µM (inactive) | 13.5 µM (inactive) | 4.99 µM (inactive) | 16.8 µM (inactive) | 12.8 µM (inactive) | 15.7 µM (inactive)
CC(=N/NC(=S)N1CCCCC1)/C(C)=N\NC(=S)N1CCCCC1 | 1.55 µM (inactive) | 1.63 µM (inactive) | 2.34 | 1.79 µM (inactive) | 2.25 µM (inactive) | 3.15 µM (inactive) | 2.13 µM (inactive) | 2.13 µM (inactive) | 2.09 µM (inactive) | 1.74 µM (inactive) | 1.78 µM (inactive) | 2.12 µM (inactive) | 1.97 µM (inactive) | 1.57 µM (inactive) | 1.83 µM (inactive) | 1.69 µM (inactive) | 1.54 µM (inactive) | 1.77 µM (inactive) | 1.87 µM (inactive) | 1.35 µM (inactive)
Cc1ccc(S(=O)(=O)N2CCN(CCN(C)CCN3CCN(S(=O)(=O)c4ccc(C)cc4)CC3)CC2)cc1 | 17.9 µM (inactive) | 22.5 µM (inactive) | 17.6 | 17.8 µM (inactive) | 15 µM (inactive) | 17.2 µM (inactive) | 14.1 µM (inactive) | 22.6 µM (inactive) | 19.8 µM (inactive) | 19.5 µM (inactive) | 28.5 µM (inactive) | 17.4 µM (inactive) | 18.8 µM (inactive) | 16.3 µM (inactive) | 18.4 µM (inactive) | 18.5 µM (inactive) | 19.3 µM (inactive) | 16.1 µM (inactive) | 16.4 µM (inactive) | 17.9 µM (inactive)
Cc1c(C)c(CC(=O)N2CC2)c(C)c(C)c1CC(=O)N1CC1 | 1.43 µM (inactive) | 23.2 µM (inactive) | 16.8 | 5.21 µM (inactive) | 12.6 µM (inactive) | 5.19 µM (inactive) | 0.441 µM (active) | 2.77 µM (inactive) | 9.02 µM (inactive) | 19.1 µM (inactive) | 25.7 µM (inactive) | 10.2 µM (inactive) | 16 µM (inactive) | > 10 µM (inactive) | 16.8 µM (inactive) | 4.03 µM (inactive) | 6.61 µM (inactive) | 25.9 µM (inactive) | 17.6 µM (inactive) | 3.33 µM (inactive)
COc1cc(S(=O)(=O)Nc2nc(-c3ccc(N)cc3)cs2)ccc1Cl | 66.4 µM (inactive) | 42.7 µM (inactive) | 63.8 | > 100 µM (inactive) | 58.2 µM (inactive) | 91.8 µM (inactive) | 53.7 µM (inactive) | 45.8 µM (inactive) | 56 µM (inactive) | 34 µM (inactive) | > 100 µM (inactive) | 64.7 µM (inactive) | 69.5 µM (inactive) | 38.6 µM (inactive) | 97.9 µM (inactive) | 34.4 µM (inactive) | 38.5 µM (inactive) | 48 µM (inactive) | 57.3 µM (inactive) | 28.4 µM (inactive)
O=c1[nH]c(=O)n(C2CC(O)C(CO)O2)c2nc3ccc4cc5ccccc5cc4c3nc12 (stereo not given) | > 100 µM (inactive) | > 100 µM (inactive) | > 100 | > 100 µM (inactive) | > 100 µM (inactive) | 14.8 µM (inactive) | > 100 µM (inactive) | > 100 µM (inactive) | > 100 µM (inactive) | 80.7 µM (inactive) | > 100 µM (inactive) | > 100 µM (inactive) | > 100 µM (inactive) | > 100 µM (inactive) | 53.6 µM (inactive) | > 100 µM (inactive) | > 100 µM (inactive) | > 100 µM (inactive) | > 100 µM (inactive) | > 100 µM (inactive)
COc1c(OC(C)=O)c(OC(C)=O)cc2c1-c1ccc(SC)c(=O)cc1C(NC(C)=O)CC2 (stereo not given) | 11.6 µM (inactive) | 36.1 µM (inactive) | 9.77 | 0.681 µM (active) | 0.316 µM (active) | 1.81 µM (inactive) | 0.968 µM (active) | 0.392 µM (active) | 0.204 µM (active) | 26 µM (inactive) | 10.1 µM (inactive) | 1.49 µM (inactive) | 0.31 µM (active) | 0.184 µM (active) | 2.91 µM (inactive) | 0.993 µM (active) | > 100 µM (inactive) | 15.3 µM (inactive) | 3.72 µM (inactive) | 0.397 µM (active)
CN1CCN(CCCNN)CC1 | > 100 µM (inactive) | > 100 µM (inactive) | > 100 | > 100 µM (inactive) | 1.87 µM (inactive) | > 100 µM (inactive) | 0.305 µM (active) | > 100 µM (inactive) | > 100 µM (inactive) | > 100 µM (inactive) | > 100 µM (inactive) | > 100 µM (inactive) | > 100 µM (inactive) | > 100 µM (inactive) | > 100 µM (inactive) | > 100 µM (inactive) | > 100 µM (inactive) | > 100 µM (inactive) | > 100 µM (inactive) | > 100 µM (inactive)
O=C(Nc1sccc1S(=O)(=O)c1ccc(Cl)cc1)C(F)(F)F | 43 µM (inactive) | 40.7 µM (inactive) | 29.5 | 37.4 µM (inactive) | 11.5 µM (inactive) | 31 µM (inactive) | 15 µM (inactive) | 24.1 µM (inactive) | 8.63 µM (inactive) | 33.7 µM (inactive) | 48.4 µM (inactive) | 24.6 µM (inactive) | 13.5 µM (inactive) | 16 µM (inactive) | 30.3 µM (inactive) | 10.3 µM (inactive) | 6.43 µM (inactive) | 78.7 µM (inactive) | 32.7 µM (inactive) | 9.27 µM (inactive)
C=C(C)[C@@]1(O)O[C@H]2C[C@@]3(C)OC(=CC3=O)/C(C)=C\[C@@H]3OC(=O)[C@@]1(C)[C@H]32 | 18.2 µM (inactive) | 29.2 µM (inactive) | 9.25 | 21.6 µM (inactive) | 4.67 µM (inactive) | 6.31 µM (inactive) | 7.8 µM (inactive) | 15.3 µM (inactive) | 3.61 µM (inactive) | 20.7 µM (inactive) | 14 µM (inactive) | 27 µM (inactive) | 14 µM (inactive) | 13.3 µM (inactive) | 47.4 µM (inactive) | 15 µM (inactive) | 21.3 µM (inactive) | 22.9 µM (inactive) | 23.2 µM (inactive) | 14.1 µM (inactive)
